# Data published in patent US20110028509A1, “Sulfonamides” (MERCK SERONO SA, priority 2008, published 2011).
# Columns and labels:
# [1] = target: T1, CXCR3 (Homo sapiens, UniProt P49682); test: Chemotaxis assay IP10, L1.2 recombinant cells expressing hCXCR3; type: cell-based; settings: L1.2 hCXCR3 cells, IP10 around 0.3 nM, 4 hours
# T1 sequence (P49682 1-368): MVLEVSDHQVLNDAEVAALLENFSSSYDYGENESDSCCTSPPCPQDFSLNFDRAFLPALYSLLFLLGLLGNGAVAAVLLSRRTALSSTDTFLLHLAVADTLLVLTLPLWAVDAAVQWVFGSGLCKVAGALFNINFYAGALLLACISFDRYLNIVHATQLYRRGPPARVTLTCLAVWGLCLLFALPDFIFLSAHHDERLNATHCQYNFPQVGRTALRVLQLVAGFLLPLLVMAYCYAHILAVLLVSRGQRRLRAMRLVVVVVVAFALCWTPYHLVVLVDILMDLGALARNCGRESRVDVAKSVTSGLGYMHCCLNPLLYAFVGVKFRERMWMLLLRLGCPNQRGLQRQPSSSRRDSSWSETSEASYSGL
# Method: Human CXCR3 cDNA was amplified by PCR from a human cells cDNA library (Clontech) and subcloned into pcDNA3.1 (Invitrogen). Murine pre-B L1.2 cells were transfected with hCXCR3-pcDNA3.1 and were grown at 37° C., 5% CO2 in RPMI 1640 medium (Invitrogen, USA) supplemented with 5% heat inactivated fetal calf serum (Cancerra, Australia), 2 mM glutamine (Invitrogen), 50 units ml−1 penicillin, 50 μml−1 streptomycin. Stable transfectant clonal populations were selected using 800 μg/ml geneticin.
# L1.2 recombinant cells expressing the receptor hCXCR3 were maintained in culture in RPMI 1640 (invitrogen), 5% Foetal Bovine Serum (invitrogen), 2 mM glutamine(invitrogen), 50 u/ml penicillin/streptomycin (invitrogen), at 37° C.-5% CO2—in an H2O saturated incubator. In order to stimulate the expression of the receptor, cells were incubated overnight with 5 mM butyric acid (Sigma)
# This mix of cells/compounds was then incubated at 37° C.-5% CO2—in an H2O saturated incubator during 30 minutes. Cells were then dispensed as a drop on each corresponding wells of the chemotaxis system. Cell migration was then induced at 37° C.-5% CO2—in an H2O incubator during 4 hours. Filters were then removed and cells that had migrated were transferred in a black plate (Costar). The plates were stored overnight at −80° C. Cell migration ratio was calculated using the cyquant dye (Molecular Probes-C7026).
# [2] = target: T1, CXCR3; test: Radioligand binding, scintillation proximity assay ([125I]IP-10 or [125I]I-TAC competition) on CHO-CXCR3 cell membranes; set-up: host or cells: CHO cells stably expressing hCXCR3; settings: [125I]IP-10, human CXCR3 cell membranes, Cheng-Prusoff; read-out: Binding Ki (μM) IP10
# Method: Human chinese hamster ovary (CHO) cell line stably expressing hCXCR3 was purchased from Euroscreen (Belgium) and culture in HAM's F12 (Invitrogen) containing 10% heat inactivated fetal calf serum (Cancerra, Australia), 50 units ml−1 penicillin, 50 μml−1 streptomycin, (Invitrogen, USA) and 400 μg/ml geneticin (G418) (Calbiochem, San Diego), according to the manufacturer.
# CHO cells expressing the human CXCR3 were disrupted by nitrogen cavitation (Parr Instruments, USA) at 4° C., 800 p.s.i. for 30 min in 50 mM Tris-HCl pH 7.5, 2 mM EDTA, 250 mM Sucrose and protease inhibitors (Roche). Cell membranes were prepared by differential centrifugation (200×g for 10 min, then 100000×g for 60 min). Membranes pellets were re-suspended in 50 mM Tris-HCL pH 7.4, 1 mM EDTA, 10 mM MgCl2, 250 mM sucrose and inhibitor of proteases. Purified CHO-CXCR3 cell membranes were frozen in liquid nitrogen and stored at −80° C.
# A scintillation proximity assay was used for radioligand competition and saturation binding assays. For each assay point, 1 to 5 μg of human CXCR3 cell membranes were incubated in a final volume of 100 μl in 96 well plates (Corning, USA) for 120 minutes with shaking at room temperature in presence of 100 μg of wheat germ agglutinin-coated scintillation proximity assay beads (WGA-SPA, RPNQ0001, GE Healthcare), 0.05-0.1 nM [125I]I-TAC (Perkin Elmer, 1366Cie/mmol) or 0.1 nM [125I]IP-10 (Perkin Elmer, 2200 Cie/mmol) in binding buffer (50 mM HEPES/KOH pH 7.4, 10 mM MgCl2, 1 mM CaCl2, 0.1% bovine serum albumin (BSA), 100 mM NaCl with protease inhibitor cocktail tablets (Roche). Assay was performed in presence of 1% dimethylsulphoxide (Me2SO). Binding activity was determined using a 1450 Micro-beta scintillation counter (Wallac, UK). Ki values were calculated using the Cheng-Prusoff equation (Cheng and Prusoff, 1973) and represent the average of at least three independent dose response experiments.
# [3] = target: T1, CXCR3; test: Chemotaxis assay ITAC (CXCL11), L1.2-CXCR3 cells; type: cell-based; set-up: expressed in transfected cells; settings: 1 nM CXCL11 (I-TAC), 4 hours
# How it was run: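 Murine pre-B L1.2 cells stably expressing human CXCR3, pretreated 24 h with 5 mM butyric acid, preincubated with compound 30 min at 37 °C in 1% DMSO. Migration toward 1 nM CXCL11 (also with compound) through 8 μm filters for 4 h at 37 °C; migrated cells counted with CyQuant GR dye.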
# [4] = target: T1, CXCR3; test: CXCR3 Ca2+ mobilization (FLIPR), stable hCXCR3-CHO cell line, I-TAC stimulated; type: cell-based; set-up: host or cells: CHO cells stably expressing hCXCR3; settings: hCXCR3-CHO cells, I-TAC 100 nM stimulated Ca2+ response; read-out: Ca-ITAC
# How it was run: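 Ca2+ mobilization triggered by I-TAC (100 nM) measured by FLIPR in a stable hCXCR3-CHO line. Dye-loaded (60 min) cells preincubated with compounds 20 minutes at room temperature; antagonism given relative to the compound-free I-TAC signal set at 100%.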
SMILES,IC50 [1] [µM],Ki [2] [µM],IC50 [3] [nM],IC50 [4] [nM]
"O=C(NCC1CC1)c1ccc(CN(Cc2ccccn2)S(=O)(=O)c2ccc(Cl)cc2)cc1 [Example 5, 4-{[[(4-chlorophenyl)sulfonyl](pyridin-2-ylmethyl)amino]methyl}-N-(cyclopropylmethyl)benzamide]",0.2,0.168,–,–
"O=C(NCc1cccc(Cl)c1)c1ccc(CN(Cc2ccccn2)S(=O)(=O)c2ccc(Cl)cc2)cc1 [Example 6, N-(3-chlorobenzyl)-4-{[[(4-chlorophenyl)sulfonyl](pyridin-2-ylmethyl)amino]methyl}benzamide]",–,0.123,–,–
"O=C(NCc1cccs1)c1ccc(CN(Cc2ccccc2)S(=O)(=O)c2ccc(Cl)cc2)cc1 [Example 7, 4-({benzyl[(4-chlorophenyl)sulfonyl]amino}methyl)-N-(2-thienylmethyl)benzamide]",0.192,0.299,–,–
"O=C(NCc1cccc(Cl)c1)c1ccc(CN(Cc2ccccc2)S(=O)(=O)c2ccc(Cl)cc2)nc1 [Example 8, 6-({benzyl[(4-chlorophenyl)sulfonyl]amino}methyl)-N-(3-chlorobenzyl)nicotinamide]",0.369,0.64,–,–
"O=C(NC1(c2ccccc2)CC1)c1ccc(CN(Cc2ccccc2)S(=O)(=O)c2ccc(Cl)cc2)cc1 [Example 10, 4-({benzyl[(4-chlorophenyl)sulfonyl]amino}methyl)-N-(1-phenylcyclopropyl)benzamide]",0.238,0.155,–,–
"O=C(NS(=O)(=O)Cc1ccccc1)c1ccc(CN(Cc2ccccn2)S(=O)(=O)c2ccc(Cl)cc2)cc1 [Example 11, N-(benzylsulfonyl)-4-{[[(4-chlorophenyl)sulfonyl](pyridin-2-ylmethyl)amino]methyl}benzamide]",0.404,0.1,–,–
"O=C(NS(=O)(=O)c1cccc(Cl)c1)c1ccc(CN(Cc2ccccc2)S(=O)(=O)c2ccc(Cl)cc2)cc1 [Example 12, N-[(3-chlorophenyl)sulfonyl]-4-{[benzyl[(4-chlorophenyl)sulfonyl]amino]methyl}benzamide]",0.865,1.65,–,–
"O=C(NS(=O)(=O)c1cccc(Cl)c1)c1ccc(CN(Cc2ccccn2)S(=O)(=O)c2ccc(Cl)cc2)cc1 [Example 13, N-[(3-chlorophenyl)sulfonyl]-4{[[(4-chlorophenyl)sulfonyl](pyridin-2-ylmethyl)amino]methyl}benzamide]",0.138,0.066,–,–
"O=S(=O)(c1ccc(Cl)cc1)N(Cc1ccc(-c2nnn[nH]2)cc1)Cc1ccccn1 [Example 16, 4-chloro-N-(pyridin-2-ylmethyl)-N-[4-(1H-tetrazol-5-yl)benzyl]benzenesulfonamide]",0.496,0.092,–,–
"CCOc1ccc(S(=O)(=O)N(Cc2ccccc2)Cc2ccc(C(=O)NCC3CC3)cc2)cc1 [Example 18, 4-{[Benzyl-(4-ethoxy-benzenesulfonyl)-amino]-methyl}-N-cyclopropylmethylbenzamide]",–,0.78,1680,–
CCOc1ccc(S(=O)(=O)N(Cc2ccccc2)Cc2ccc(C(=O)NCc3ccccc3)cc2)cc1 [Example 33],–,0.197,–,530
"O=C(NC1(c2ccccc2)CC1)c1ccc(CN(Cc2ccccn2)S(=O)(=O)c2ccc(Cl)cc2)cc1 [Example 40, 4-{[(4-Chloro-benzenesulfonyl)-pyridin-2-ylmethyl-amino]-methyl}-N-(1-phenyl-cyclopropyl)-benzamide]",0.025,0.015,53,90
"CCOc1ccc(S(=O)(=O)N(Cc2ccc(-c3nnn[nH]3)cc2)Cc2ccccn2)cc1 [Example 42, 4-Ethoxy-N-(pyridin-2-ylmethyl)-N-[4-(2H-tetrazol-5-yl)benzyl]benzenesulfonamide]",–,0.161,1040,520
N#Cc1ccc(S(=O)(=O)N(Cc2ccc(C(=O)NC3(c4ccccc4)CC3)cc2)Cc2ccccn2)cc1 [Example 44],0.013,0.01,33,268
